Experiments:
[1] = tested on: CD8+ T cells specific to MA p265, NY p81 and mERK2 9m; assay: Specific CD8+ T cell induction by CHP/long chain peptide vaccines in mice, intracellular cytokine staining of spleen cells; type: in vivo, BALB/c mice
Source text: Long chain peptide antigens MEN, all containing three types of mouse CD8+ T cell epitope sequences (MA p265 (Sequence No. 27), NY p81 (Sequence No. 29), and mERK2 9m (Sequence No. 28)), were synthesized. The interepitope sequences between the respective epitopes were respectively six consecutive tyrosines (Y6) (Sequence No. 1), six consecutive glycines (G6) (Sequence No. 2), six consecutive prolines (P6) (Sequence No. 3), or six consecutive threonines (T6) (Sequence No. 4). Each long chain peptide antigen was complexed with cholesterol-modified pullulan (CHP), which is a type of delivery system, and administered as a vaccine to a mouse. In the process of administration, CpG oligo DNA was coadministered as an adjuvant. Spleen cells were collected one week after the final administration and the frequencies of CD8+ T cells specific to the respective epitope sequences were measured by an intracellular cytokine staining method.
Long chain peptide antigens NME, all containing three types of mouse CD8+ T cell epitope sequences (MA p265 (Sequence No. 27), NY p81 (Sequence No. 29), and mERK2 9m (Sequence No. 28)), were synthesized. The antigens differ from the MEN sequences shown in FIG. 1 in the order of the three types of epitopes. The interepitope sequences between the respective epitopes were respectively six consecutive tyrosines (Y6) (Sequence No. 5), six consecutive glycines (G6) (Sequence No. 6), or six consecutive prolines (P6) (Sequence No. 7). Vaccines containing the respective long chain peptide antigens were administered to mice in the same manner as in FIG. 1 and the frequencies of CD8+ T cells specific to the respective epitope sequences were measured by the intracellular cytokine staining method.
Long chain peptide antigens MEN, ENM, and NME, all containing three types of mouse CD8+ T cell epitope sequences (MA p265 (Sequence No. 27), NY p81 (Sequence No. 29), and mERK2 9m (Sequence No. 28)), were synthesized. MEN, ENM, and […] in the order of the three types of epitopes. The interepitope sequences between the respective epitopes were each six consecutive tyrosines (Y6) (Sequence Nos. 1, 5 and 8). Vaccines containing the respective long chain peptide antigens were administered to mice in the same manner as in FIG. 1 and the frequencies of CD8+ T cells specific to the respective epitope sequences were measured by the intracellular cytokine staining method.
Each long chain peptide was dissolved in dimethyl sulfoxide (DMSO) at a concentration of 10 mg/mL. CHP was dissolved in 6 M urea-containing phosphate buffered saline (PBS) at a concentration of 10 mg/mL 1 mL (10 mg) of the long chain peptide solution and 20 mL (200 mg) of the CHP solution were mixed and left to stand at room temperature overnight in a dark place. The liquid mixture was transferred into a dialysis membrane (molecular weight cutoff: 3,500; Thermo Fisher Scientific, Inc.) and dialyzed for 2 hours to overnight at 4° C. against 0.6 M urea-containing PBS of a volume ratio of not less than 100 times as the dialysis outer solution. Dialysis was then performed for 2 hours to overnight at 4° C. against 0.06 M urea-containing PBS of a volume ratio of not less than 100 times as the dialysis outer solution. Dialysis was performed again for 2 hours to overnight at 4° C. against PBS of a volume ratio of not less than 100 times as the dialysis outer solution. The dialyzed inner solution was collected, filtered through a filtration sterilization filter of 0.45 μm or 0.22 μm pore size, and thereafter the UV absorption at 280 nm was measured to determine the final concentration of the long chain peptide from its molecular extinction coefficient.
Each CHP/long chain peptide complex as the vaccine and the CpG oligo DNA as the adjuvant were administered at the same time to a mouse. Administration was performed by subcutaneous injection on the back of the mouse. […]

[2] = tested on: NY p157 specific CD8+ T cell clone 1G4 cells; assay: Antigen presentation by LCL given CHP/long chain peptide vaccine, IFN-γ ELISPOT; type: cell-based, human; conditions: FIG. 10; NMW peptide complexed with CHP given to LCL as antigen-presenting cells
Source text: Long chain peptide antigens NMW, all containing three types of human CD8+ T cell epitope sequences (NY p157:HLA-A0201 restrictive, MA4 p143:HLA-A2402 restrictive, and WT1: HLA-A2402 restrictive p235), were synthesized. The interepitode sequences between the respective epitopes were the six consecutive amino acids shown in FIG. 10, namely Sequence Nos. 18-26. Each long chain peptide antigen was complexed with cholesterol-modified pullulan (CHP), which is a type of delivery system, and administered in vitro as a vaccine to an immortalized human B cell line (LCL). Using these human B cells as the antigen-presenting cells, they were co-cultured with CD8+ T cell clone 1G4 cells specific to NY p157 and the activation of the 1G4 cells due to antigen presentation was measured by an IFN-γ ELISPOT method. As a positive control, LCL administered with an NY p157 short chain peptide was used as the antigen-presenting cells, and as a negative control, LCL without antigen added was used as the antigen-presenting cells.
Cryostored LCL was rinsed with RPMI medium and suspended at 1.25×10^6/mL in X-VIVO15 medium. This was dispensed in 0.4 mL aliquots into polypropylene tubes, and 0.1 mL of a vaccine solution (0.1 mg/mL as peptide) was added to each tube. The cells were cultured for 24 hours at 37° C. in the presence of 5% CO2 and then used as antigen-presenting cells.
75 μL aliquots of anti-IFN-γ antibody for capture, diluted to an appropriate concentration, were dispensed into a 96-well plate (Millipore Corp., Multiscreen HA, MAHAS4510) specially designed for ELISPOT and left to stand overnight at 4° C. After discarding the liquid and rinsing with RPMI medium, 100 μL aliquots of RPMI medium containing 10% fetal bovine serum were dispensed and the plate was left to stand for not less than 1 hour at 37° C. The liquid was discarded, and the LCL prepared in (9) or (10) was adjusted to 5×10^4 cells/100 μL/well and added to each well. The cryostored CD8^+ T cell clones were thawed, rinsed, adjusted to 5×10^5/mL with RPMI medium, and thereafter added in 0.1 mL aliquots to each well. After culturing for 24 hours at 37° C. in the presence of 5% CO2, the liquid was discarded and the plate was rinsed well with phosphate buffered saline containing 0.05% Tween 20 (PBS-T). A biotin-labeled IFN-γ antibody for detection was diluted to an appropriate concentration and dispensed in 0.1 mL aliquots into each well. After letting stand overnight at 4° C., the plate was rinsed well with PBS-T, and an alkaline phosphatase-labeled streptavidin diluted to an appropriate concentration was added in 0.1 mL aliquots. After incubating for 1 hour at room temperature, the plate was rinsed well with PBS-T. A coloring solution was added in 0.1 mL aliquots and allowed to react for 5 minutes to 30 minutes at room temperature. When the formation of spots was observed, the reaction was stopped by rinsing with water.

[3] = FIG. 4, MEN, ENM, NME epitope orders, interepitope sequence fixed at Y6
[4] = FIG. 3, NME antigens (different epitope order) complexed with CHP, CpG oligo DNA

QYIHSANVLYYYYYYRGPESRLLYYYYYYSNPARYEFL (Long chain peptide antigen, containing three types of mouse CD8+ T cell epitope sequences (MA p265, NY p81, and mERK2 9m)) [ENM(Y6)]
induction of specific CD8+ T cells corresponding to all three types of epitopes [1, 3]: clearly induced

RGPESRLLGGGGGGSNPARYEFLGGGGGGQYIHSANVL (Long chain peptide antigen, containing three types of mouse CD8+ T cell epitope sequences (MA p265, NY p81, and mERK2 9m)) [NME(G6)]
induction of specific CD8+ T cells corresponding to all three types of epitopes [1, 4]: not observed for one or two types of epitopes among the three types of epitopes

RGPESRLLPPPPPPSNPARYEFLPPPPPPQYIHSANVL (Long chain peptide antigen, containing three types of mouse CD8+ T cell epitope sequences (MA p265, NY p81, and mERK2 9m)) [NME(P6)]
induction of specific CD8+ T cells corresponding to all three types of epitopes [1, 4]: not observed for one or two types of epitopes among the three types of epitopes

RGPESRLLYYYYYYSNPARYEFLYYYYYYQYIHSANVL (Long chain peptide antigen, containing three types of mouse CD8+ T cell epitope sequences (MA p265, NY p81, and mERK2 9m)) [NME(Y6)]
induction of specific CD8+ T cells corresponding to all three types of epitopes [1, 4]: clearly induced
induction of specific CD8+ T cells corresponding to all three types of epitopes [1, 3]: clearly induced

SLLMWITQCAAAAAANYKRCFPVIAAAAAACMTWNQMNL (Long chain peptide antigen, containing three types of human CD8+ T cell recognition epitope sequences (NY p157, MA4 p143, and WT1 p235)) [NMW(A6)]
activation of 1G4 cells [2]: clearly observed

SLLMWITQCGGGGGGNYKRCFPVIGGGGGGCMTWNQMNL (Long chain peptide antigen, containing three types of human CD8+ T cell recognition epitope sequences (NY p157, MA4 p143, and WT1 p235)) [NMW(G6)]
activation of 1G4 cells [2]: not clearly confirmed

SLLMWITQCNNNNNNNYKRCFPVINNNNNNCMTWNQML (SLLMWITQCNNNNNNNYKRCFPVINNNNNNCMTWNQMNL; Long chain peptide antigen, containing three types of human CD8+ T cell recognition epitope sequences (NY p157, MA4 p143, and WT1 p235)) [NMW(N6)]
activation of 1G4 cells [2]: clearly observed

SLLMWITQCPPPPPPNYKRCFPVIPPPPPPCMTWNQMNL (Long chain peptide antigen, containing three types of human CD8+ T cell recognition epitope sequences (NY p157, MA4 p143, and WT1 p235)) [NMW(P6)]
activation of 1G4 cells [2]: not clearly confirmed

SLLMWITQCQQQQQQNYKRCFPVIQQQQQQCMTWNQMNL (Long chain peptide antigen, containing three types of human CD8+ T cell recognition epitope sequences (NY p157, MA4 p143, and WT1 p235)) [NMW(Q6)]
activation of 1G4 cells [2]: clearly observed

SLLMWITQCSSSSSSNYKRCFPVISSSSSSCMTWNQMNL (Long chain peptide antigen, containing three types of human CD8+ T cell recognition epitope sequences (NY p157, MA4 p143, and WT1 p235)) [NMW(S6)]
activation of 1G4 cells [2]: clearly observed

SLLMWITQCYYYYYYNYKRCFPVIYYYYYYCMTWNQMNL (Long chain peptide antigen, containing three types of human CD8+ T cell recognition epitope sequences (NY p157, MA4 p143, and WT1 p235)) [NMW(Y6)]
activation of 1G4 cells [2]: clearly confirmed

SNPARYEFLTTTTTTQYIHSANVLTTTTTTRGPESRLL (Long chain peptide antigen, containing three types of mouse CD8+ T cell epitope sequences (MA p265, NY p81, and mERK2 9m)) [MEN(T6)]
induction of specific CD8+ T cells corresponding to all three types of epitopes ([1]; FIG. 1, MEN antigens complexed with CHP, subcutaneous, CpG oligo DNA adjuvant, spleen cells one week after final administration): clearly induced
